Results on 11 compounds are retold here after ChEMBL document CHEMBL1153286, “Synthesis and biological evaluation of sulfonylurea and thiourea derivatives substituted with benzenesulfonamide groups as potential hypoglycemic agents” (Bioorg Med Chem Lett, 2009).

Assay [1] relates to Adipocyte. The experiment in a line: Effect on 2-deoxy-D-[1-3H]glucose transport in Sprague-Dawley rat adipocytes at 100 uM in presence of insulin by liquid scintillation counting. The class given is functional.
Assay [2] can be described thus: Effect on insulin release in rat pancreatic cells at 1 umol/L after 6 hrs by radioimmunoassay. The class given is functional.
Assay [3] deals with Adipocyte. The experiment in a line: Effect on 2-deoxy-D-[1-3H]glucose transport in Sprague-Dawley rat adipocytes at 1 uM in presence of insulin by liquid scintillation counting. In kind it is functional.
In assay [4] the test system is Adipocyte. The experiment in a line: Effect on 2-deoxy-D-[1-3H]glucose transport in Sprague-Dawley rat adipocytes at 100 uM in absence of insulin by liquid scintillation counting. In kind it is functional.
The test system of assay [5] is Adipocyte. The experiment in a line: Effect on 2-deoxy-D-[1-3H]glucose transport in Sprague-Dawley rat adipocytes at 10 uM in absence of insulin by liquid scintillation counting. The class given is functional.
The subject of assay [6] is Adipocyte. Put plainly: Increase in glucose absorption in Sprague-Dawley rat adipocytes at 100 uM by liquid scintillation counting relative to basal level. The class given is functional.
The subject of assay [7] is Adipocyte. The experiment in a line: Effect on 2-deoxy-D-[1-3H]glucose transport in Sprague-Dawley rat adipocytes at 1 uM in absence of insulin by liquid scintillation counting. The class given is functional.
Assay [8] is described as follows: Effect on insulin release in rat pancreatic cells at 100 umol/L after 6 hrs by radioimmunoassay. The class given is functional.
Assay [9] relates to Adipocyte. The experiment in a line: Effect on 2-deoxy-D-[1-3H]glucose transport in Sprague-Dawley rat adipocytes at 10 uM in presence of insulin by liquid scintillation counting. The class given is functional.
Assay [10] in a line: Effect on insulin release in rat pancreatic cells at 10 umol/L after 6 hrs by radioimmunoassay. In kind it is functional.
A short description of assay [11]: Increase in insulin release in rat pancreatic cells at 100 umol/L after 6 hrs by radioimmunoassay relative to basal level. The class given is functional.
The nature of assay [12]: Antiplatelet activity in human platelets assessed as inhibition of ADP-induced platelet aggregation. The class given is functional, cell-based.
Another assay concerns Mus musculus. Put plainly: Protection against collagen-epinephrine-induced mortality in Chinese Kunming cerebral thrombosis mouse model assessed as survival rate at 60 mg/kg, po administered once daily for 7 days measured on day 7 within 15 mins of collagen-epinephrine challenge. In kind it is functional.
A short description of assay [13]: Antiplatelet activity in human platelets assessed as inhibition of arachidonic acid-induced platelet aggregation. The class given is functional, cell-based.

For orientation: IC50 means the point on the concentration scale where inhibition reaches its midpoint.

On to `CC1CCC(NC(=O)NS(=O)(=O)c2ccc(CCNS(=O)(=O)c3ccc(Cl)cc3)cc2)CC1` (configuration not stated), for which the Activity worked out at 7013.28 disintegrations/minute with Adipocyte [1]; 38.15 uIU/ml in assay [2]; 5972.68 disintegrations/minute with Adipocyte [3]; 6960.26 disintegrations/minute in the assay on Adipocyte [4]; 6411.7 disintegrations/minute in the assay with Adipocyte [5]; 5869.85 disintegrations/minute in the assay with Adipocyte [7]. Besides, the Activity in assay [8] is 72.23 uIU/ml; with Adipocyte [9], 6358.77 disintegrations/minute; in [10] it was 41.29 uIU/ml. Further, the figures for the “fold change (FC)” value (in the assay on Adipocyte [6]; in assay [11]) were 1.57 and 3.05, respectively.
Consider `Cc1ccc(S(=O)(=O)NCCc2ccc(S(=O)(=O)NC(=S)Nc3ccc(Cl)cc3)cc2)cc1`, for which the Activity is 7832.17 disintegrations/minute in the assay with Adipocyte [1]; 23.89 uIU/ml in assay [2]; 5115.18 disintegrations/minute in the assay with Adipocyte [3]; 7061.15 disintegrations/minute in the assay with Adipocyte [4]; 6514.04 disintegrations/minute in the assay with Adipocyte [5]; 5687.31 disintegrations/minute in the assay with Adipocyte [7]. In addition, the Activity in [8] was 22.25 uIU/ml; in the assay on Adipocyte [9], 5512.62 disintegrations/minute; in assay [10], 23.01 uIU/ml. In addition, the “fold change (FC)” value in the assay with Adipocyte [6] turned out to be 1.59.
Regarding `COc1cc(S(=O)(=O)NCCc2ccc(S(=O)(=O)NC(=O)NC3CCC(C)CC3)cc2)ccc1NC(C)=O` (configuration not stated), the Activity came out at 7447.72 disintegrations/minute in the assay with Adipocyte [1]; 24.57 uIU/ml in [2]; 5587.26 disintegrations/minute with Adipocyte [3]; 7037.78 disintegrations/minute in the assay on Adipocyte [4]; 6547.93 disintegrations/minute in the assay with Adipocyte [5]; 5294.78 disintegrations/minute in the assay with Adipocyte [7]. In addition, the figures for the Activity (in [8]; in the assay on Adipocyte [9]; in assay [10]) were 24.83 uIU/ml, 6341.17 disintegrations/minute and 24.47 uIU/ml, respectively. Moreover, in the assay with Adipocyte [6], the “fold change (FC)” value was 1.58.
Regarding `Cc1ccc(NC(=S)NS(=O)(=O)c2ccc(CCNS(=O)(=O)c3ccccc3)cc2)cc1`, the Activity in the assay with Adipocyte [1] is on record as 5761.23 disintegrations/minute; in [2], 27.99 uIU/ml; in the assay with Adipocyte [3], 5319.5 disintegrations/minute; in the assay with Adipocyte [4], 4663.52 disintegrations/minute; in the assay with Adipocyte [5], 4385.12 disintegrations/minute; with Adipocyte [7], 4377.95 disintegrations/minute. In addition, the Activity in assay [8] worked out at 24.97 uIU/ml; with Adipocyte [9], 5644.89 disintegrations/minute; in assay [10], 27.71 uIU/ml.
On to `O=S(=O)(NCCc1ccc(S(=O)(=O)NC(=S)Nc2ccc(Cl)cc2)cc1)c1ccc(Cl)cc1`, for which the Activity in the assay with Adipocyte [1] came out at 5764.25 disintegrations/minute; in [2] it was 29.46 uIU/ml; in the assay on Adipocyte [3], 5179.3 disintegrations/minute; with Adipocyte [4], 4763.58 disintegrations/minute; with Adipocyte [5], 4432.15 disintegrations/minute; in the assay with Adipocyte [7], 4587.26 disintegrations/minute. The results for the Activity (in assay [8]; with Adipocyte [9]; in [10]) were 26.07 uIU/ml, 5436.58 disintegrations/minute and 26.37 uIU/ml, respectively.
Regarding `CC(=O)Oc1ccccc1C(=O)O` [ASPIRIN], the IC50 stood at 9.34 µM in [12] and 0.35 µM in assay [13]. Also, the survival at 60 mg/kg in the assay with Mus musculus turned out to be 63.6%.
As to `Cc1ccc(S(=O)(=O)NCCc2ccc(S(=O)(=O)NC(=O)NC3CCCCC3)cc2)cc1`, the Activity with Adipocyte [1] is given as 5297.11 disintegrations/minute; in assay [2], 22.45 uIU/ml; in the assay on Adipocyte [3], 5374.21 disintegrations/minute; in the assay with Adipocyte [4], 4458.36 disintegrations/minute; in the assay on Adipocyte [5], 4174.59 disintegrations/minute; with Adipocyte [7] it was 4281.3 disintegrations/minute. For the same compound, the Activity is given as 25.93 uIU/ml in assay [8], 5533.15 disintegrations/minute in the assay with Adipocyte [9] and 22.7 uIU/ml in assay [10].
As for `CCC1=C(C)CN(C(=O)NCCc2ccc(S(=O)(=O)NC(=O)N[C@H]3CC[C@H](C)CC3)cc2)C1=O` [GLIMEPIRIDE], the Activity with Adipocyte [1] turned out to be 13255.41 disintegrations/minute; in the assay on Adipocyte [3], 6365.67 disintegrations/minute; in the assay on Adipocyte [4], 11068.51 disintegrations/minute; with Adipocyte [5] it was 7476.6 disintegrations/minute; in the assay on Adipocyte [7] it was 5061.2 disintegrations/minute; in [8], 48.14 uIU/ml. In addition, the Activity with Adipocyte [9] is given as 8593.72 disintegrations/minute. Besides, the “fold change (FC)” value in the assay with Adipocyte [6] is recorded as 2.5; in assay [11], 2.03.
Take `O=C(NC1CCCCC1)NS(=O)(=O)c1ccc(CCNS(=O)(=O)c2ccc(Br)cc2)cc1`: the Activity in the assay on Adipocyte [1] is on record as 7896.14 disintegrations/minute; in assay [2], 32.09 uIU/ml; in the assay with Adipocyte [3] it was 5523.89 disintegrations/minute; with Adipocyte [4], 6556.61 disintegrations/minute; in the assay on Adipocyte [5], 4861.54 disintegrations/minute; in the assay with Adipocyte [7], 4421.72 disintegrations/minute. Moreover, the values for the Activity (in assay [8]; with Adipocyte [9]; in assay [10]) were 65.98 uIU/ml, 6002.46 disintegrations/minute and 45.01 uIU/ml, respectively.
In the case of `CC(=O)Nc1ccc(S(=O)(=O)NCCc2ccc(S(=O)(=O)NC(=O)NC3CCC(C)CC3)cc2)cc1C` (configuration not stated), the Activity was 7244.87 disintegrations/minute with Adipocyte [1]; 23.57 uIU/ml in assay [2]; 6123.02 disintegrations/minute with Adipocyte [3]; 5207.81 disintegrations/minute with Adipocyte [4]; 4573.8 disintegrations/minute in the assay with Adipocyte [5]; 4302.19 disintegrations/minute in the assay with Adipocyte [7]. The Activity turned out to be 37.32 uIU/ml in assay [8], 6516.9 disintegrations/minute in the assay with Adipocyte [9] and 27.67 uIU/ml in [10].
On to `COc1ccc(NC(=S)NS(=O)(=O)c2ccc(CCNS(=O)(=O)c3ccc(Br)cc3)cc2)cc1`, for which the Activity was 5069.25 disintegrations/minute with Adipocyte [1]; 22.25 uIU/ml in assay [2]; 5177.84 disintegrations/minute with Adipocyte [3]; 4335.26 disintegrations/minute in the assay with Adipocyte [4]; 4026.52 disintegrations/minute in the assay with Adipocyte [5]; 4125.36 disintegrations/minute in the assay on Adipocyte [7]. Moreover, the Activity in [8] amounted to 26.17 uIU/ml; in the assay with Adipocyte [9], 5234.61 disintegrations/minute; in assay [10], 24.67 uIU/ml.
